Among the data in patent US8586588B2, “Aryl pyridazinone derivatives and their use as H3 receptor ligands” (Cephalon, Inc., priority 2006, dated 2013) are melting point and Ki values, retold here.

Molecules are shown by their SMILES. Counter-ions that a name gives are not always drawn. Like-named read-outs stand apart in the source and are kept apart here.

Series [1] has as its target T1, rat histamine H3 receptor (Rattus norvegicus, UniProt Q9QYN8).
T1 construct: encoding the entire 445-amino-acid rat histamine H3 receptor; expressed in transfected cells
The series is described as follows: Rat H3 radioligand binding ([3H]-N-alpha-methylhistamine, CHO-A3 cell membranes, SPA). Put shortly: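 Scintillation proximity displacement of about 1 nM [3H]-N-alpha-methylhistamine, test compound 0.01 nM-30 μM, 4 h, room temperature, in the dark. Receptor source: rat H3 stably transfected into CHO-A3 cells, 10 μg membrane protein, Tris-HCl pH 7.4/MgCl2/BSA buffer. Nonspecific binding defined by 10 μM clobenpropit.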

Series [2] deals with T2, human H3 receptor (Homo sapiens, UniProt Q9Y5N1).
T2 construct: expressed in transfected cells
T2 sequence (Q9Y5N1 whole entry): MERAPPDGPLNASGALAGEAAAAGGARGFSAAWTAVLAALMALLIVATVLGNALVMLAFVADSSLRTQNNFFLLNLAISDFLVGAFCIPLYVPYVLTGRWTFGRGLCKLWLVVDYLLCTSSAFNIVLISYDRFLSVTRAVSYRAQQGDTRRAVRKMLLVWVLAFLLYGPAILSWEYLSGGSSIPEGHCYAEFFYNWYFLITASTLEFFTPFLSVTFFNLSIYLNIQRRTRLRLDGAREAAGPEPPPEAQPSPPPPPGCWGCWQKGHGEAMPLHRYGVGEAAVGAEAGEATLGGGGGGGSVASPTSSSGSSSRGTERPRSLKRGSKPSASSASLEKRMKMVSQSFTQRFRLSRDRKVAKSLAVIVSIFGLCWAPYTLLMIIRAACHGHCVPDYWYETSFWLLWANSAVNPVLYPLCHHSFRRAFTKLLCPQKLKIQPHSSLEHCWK
The series is described as follows: Human H3 radioligand binding ([3H]-N-alpha-methylhistamine, CHO cell membranes, SPA). Particulars: binding constant as letter class. Put shortly:
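Scintillation proximity format: bead-proximal [3H]-N-alpha-methylhistamine (approximately 1 nM final) bound to human H3 receptor in CHO membranes was counted after 4 h at room temperature, light-protected. Buffer was pH 7.4 Tris/MgCl2/BSA; test compounds spanned 0.01 nM-30 μM; 10 μM clobenpropit set non-specific binding.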

The mark [3] stands for this setting: Table A, binding constant as letter class, read-out: Rat H3 Ki.
Setting [4] is: Table B, binding constant as letter class, read-out: rat H3 Ki.

T1 sequence (Q9QYN8 whole entry): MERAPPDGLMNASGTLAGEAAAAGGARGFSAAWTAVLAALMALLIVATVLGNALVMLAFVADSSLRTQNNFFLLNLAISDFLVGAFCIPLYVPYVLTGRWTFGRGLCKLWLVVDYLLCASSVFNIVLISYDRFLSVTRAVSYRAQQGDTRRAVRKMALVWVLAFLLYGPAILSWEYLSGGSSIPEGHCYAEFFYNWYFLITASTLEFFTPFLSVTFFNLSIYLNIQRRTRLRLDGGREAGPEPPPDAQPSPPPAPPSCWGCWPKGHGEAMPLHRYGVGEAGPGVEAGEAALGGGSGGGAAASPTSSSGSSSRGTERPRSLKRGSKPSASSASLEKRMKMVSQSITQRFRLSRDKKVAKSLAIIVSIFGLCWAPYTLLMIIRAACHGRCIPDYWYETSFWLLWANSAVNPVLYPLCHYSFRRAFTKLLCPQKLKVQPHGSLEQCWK

In the case of `CC1CC(=O)NN=C1c1ccc(OCCCN2CCC[C@H]2C)cc1` (mixture of isomers) (as salt: HCl) [Example 194, 5-Methyl-6-{4-[3-((R)-2-methyl-pyrrolidin-1-yl)-propoxy]-phenyl}-4,5-dihydro-2H-pyridazin-3-one], the melting point was in the range of 169 to 171 °C.

As to `CC1CC(=O)NN=C1c1ccc(OCCCN2CCCC2)cc1` (racemic) (as salt: HCl) [Example 198, 5-Methyl-6-[4-(3-pyrrolidin-1-yl-propoxy)-phenyl]-4,5-dihydro-2H-pyridazin-3-one], the melting point is 161 to 163 °C.

Compound `C[C@@H]1CCCN1CCCOc1ccc(C2=NNC(=O)C3CC23)cc1` (mixture of isomers) (as salt: HCl) [Example 243, 5-{4-[3-((R)-2-Methyl-pyrrolidin-1-yl)-propoxy]-phenyl}-3,4-diaza-bicyclo[4.1.0]hept-4-en-2-one] yielded a melting point of 136 to 139 °C.

The compound `CC1CC(=O)NN=C1c1ccc(OC2CCN(C3CCC3)CC2)cc1` (racemic) [Example 189, 6-[4-(1-Cyclobutyl-piperidin-4-yloxy)-phenyl]-5-methyl-4,5-dihydro-2H-pyridazin-3-one] had a melting point of 163 to 165 °C. In series [1], this compound yielded a Ki of 0.1 to 100 nM.

In turn, `Cn1nc(-c2ccc(OCC3CCN(C(=O)OC(C)(C)C)CC3)cc2)c2ccccc2c1=O` [Example 62, 4-[4-(3-Methyl-4-oxo-3,4-dihydro-phthalazin-1-yl)-phenoxymethyl]-piperidine-1-carboxylic acid tert-butyl ester] yielded a melting point of 167 to 169 °C. In series [2] (Table A), this compound registered an inhibition constant (Ki) above 1000 nM. Besides, the Ki in series [1] (setting [3]) was above 1000 nM.

Regarding `Cn1nc(-c2ccc(OCC3CCN(C(=O)OC(C)(C)C)CC3)cc2)ccc1=O` [Example 65, 4-[4-(1-Methyl-6-oxo-1,6-dihydro-pyridazin-3-yl)-phenoxymethyl]-piperidine-1-carboxylic acid tert-butyl ester], the melting point is 164 to 166 °C. For the same compound, in series [2] (Table A), the Ki was above 1000 nM. For the same compound, the Ki in series [1] (setting [3]) is above 1000 nM.

`Cn1nc(-c2ccc(OC3CCN(C4CCCC4)CC3)cc2)ccc1=O` [Example 83, 6-[4-(1-Cyclopentyl-piperidin-4-yloxy)-phenyl]-2-methyl-2H-pyridazin-3-one] showed a melting point of 129 to 132 °C. Further, the Ki in series [2] (Table B) fell in the range of 0.1 to 100 nM. Further, the inhibition constant Ki in series [1] (setting [4]) was in the range of 0.1 to 100 nM.

`C[C@@H]1CCCN1CCCOc1c(F)cc(-c2ccc(=O)n(C)n2)cc1F` [Example 84, 6-{3,5-Difluoro-4-[3-((R)-2-methyl-pyrrolidin-1-yl)-propoxy]-phenyl}-2-methyl-2H-pyridazin-3-one] came in with a melting point of 175 to 178 °C. The Ki in series [2] (Table B) fell in the range of 0.1 to 100 nM. In addition, in series [1] (setting [4]), the Ki was 0.1 to 100 nM.

Regarding `Cc1cccc(-n2ncc(-c3ccc(OCCCN4CCC[C@H]4C)cc3)cc2=O)n1` [Example 98, 2-(6-Methyl-pyridin-2-yl)-5-{4-[3-((R)-2-methyl-pyrrolidin-1-yl)-propoxy]-phenyl}-2H-pyridazin-3-one], the melting point was 118 to 120 °C. The compound also returned a Ki in series [2] (Table B) of 0.1 to 100 nM. Also, in series [1] (setting [4]), the Ki was 0.1 to 100 nM.

Regarding `Cc1n[nH]c(=O)cc1-c1ccc(OC2CCNCC2)cc1.Cl` [Example 102, 6-methyl-5-[4-(piperidin-4-yloxy)-phenyl]-2H-pyridazin-3-one], the melting point is 225 to 227 °C. In series [2] (Table B), this compound registered a Ki above 1000 nM. Besides, the Ki in series [1] (setting [4]) was above 1000 nM.

The compound `CC1=NNC(=O)CC1c1ccc(OC2CCN(C3CCC3)CC2)cc1` (stereo not drawn) [Example 110, 5-[4-(1-Cyclobutyl-piperidin-4-yloxy)-phenyl]-6-methyl-4,5-dihydro-2H-pyridazin-3-one] yielded a melting point of 178 to 179 °C. In series [2] (Table B), this compound showed a Ki of 0.1 to 100 nM. The Ki in series [1] (setting [4]) was in the range of 0.1 to 100 nM.

In the case of `O=C1CC(c2ccccn2)C(c2ccc(OC3CCN(C4CCC4)CC3)cc2)=NN1` (stereo not drawn) [Example 114, 6-[4-(1-Cyclobutyl-piperidin-4-yloxy)-phenyl]-5-pyridin-2-yl-4,5-dihydro-2H-pyridazin-3-one], the melting point is 199 °C (dec.). Besides, the Ki in series [2] (Table B) was 0.1 to 100 nM. In series [1] (setting [4]), the Ki lay within 0.1 to 100 nM.

As for `O=c1cc(-c2ccccn2)c(-c2ccc(OC3CCN(C4CCC4)CC3)cc2)n[nH]1` [Example 115, 6-[4-(1-Cyclobutyl-piperidin-4-yloxy)-phenyl]-5-pyridin-2-yl-2H-pyridazin-3-one], the melting point is 203 °C (dec.). Besides, the Ki in series [2] (Table B) was in the range of 0.1 to 100 nM. In series [1] (setting [4]), the Ki lay in the range of 0.1 to 100 nM.

Turning to `C[C@@H]1CCCN1CCCOc1ccc(-c2ccc(=O)[nH]n2)cc1C#N` [Example 129, 2-[3-((R)-2-Methyl-pyrrolidin-1-yl)-propoxy]-5-(6-oxo-1,6-dihydro-pyridazin-3-yl)-benzonitrile], the melting point is > 200 °C (dec.). The compound further registered a Ki in series [2] (Table B) of 0.1 to 100 nM. In addition, in series [1] (setting [4]), the Ki lay within 101 to 500 nM.

In the case of `N#Cc1cc(-c2ccc(=O)[nH]n2)ccc1OCCCN1CCCCC1` [Example 130, 2-[3-(piperidin-1-yl)-propoxy]-5-(6-oxo-1,6-dihydro-pyridazin-3-yl)-benzonitrile], the melting point was 207 to 209 °C. Besides, in series [2] (Table B), the Ki lay within 101 to 500 nM. In addition, the Ki in series [1] (setting [4]) is 101 to 500 nM.

Consider `C[C@@H]1CCCN1CCCOc1ccc(-c2ccc(=O)n(CCO)n2)cc1` [Example 131, 2-(2-Hydroxy-ethyl)-6-{4-[3-((R)-2-methyl-pyrrolidin-1-yl)-propoxy]-phenyl}-2H-pyridazin-3-one], for which the melting point fell in the range of 95 to 98 °C. In series [2] (Table B), this compound had a Ki of 0.1 to 100 nM. Further, the Ki in series [1] (setting [4]) fell in the range of 0.1 to 100 nM.

`C[C@H](COc1ccc(-c2ccc(=O)[nH]n2)cc1)CN1CCC[C@H]1C` [Example 132] came in with a melting point of 163 to 167 °C. The compound also gave a Ki in series [2] (Table B) of 0.1 to 100 nM. Besides, in series [1] (setting [4]), the Ki lay in the range of 0.1 to 100 nM.

As to `O=c1[nH]nc(-c2ccc(OCCCN3CCCCC3)cc2)c2c1CCC2` [Example 133, 4-[4-(3-Piperidin-1-yl-propoxy)-phenyl]-2,5,6,7-tetrahydro-cyclopenta[d]pyridazin-1-one], the melting point was 134 °C (dec.). The same compound yielded a Ki in series [2] (Table B) of 0.1 to 100 nM. Also, the Ki in series [1] (setting [4]) was 0.1 to 100 nM.

With `O=c1ccc(-c2ccc(OCCCN3CCCCC3)cc2)n[nH]1` [Example 134, 6-[4-(3-Piperidin-1-yl-propoxy)-phenyl]-2H-pyridazin-3-one], the melting point is 186 °C (dec.). The compound further yielded a Ki in series [2] (Table B) of 0.1 to 100 nM. In addition, the Ki in series [1] (setting [4]) lay within 0.1 to 100 nM.

For `COc1cc(-c2ccc(=O)[nH]n2)ccc1OCCCN1CCCCC1` [Example 135, 6-[3-Methoxy-4-(3-piperidin-1-yl-propoxy)-phenyl]-2H-pyridazin-3-one], the melting point was 175 °C (dec.). Also, in series [2] (Table B), the Ki lay in the range of 101 to 500 nM. The Ki in series [1] (setting [4]) lay in the range of 101 to 500 nM.

On to `COc1cc(-c2ccc(=O)[nH]n2)ccc1OCCCN1CCC[C@H]1C` [Example 136, 6-{3-Methoxy-4-[3-((R)-2-methyl-pyrrolidin-1-yl)-propoxy]-phenyl}-2H-pyridazin-3-one], for which the melting point is 148 °C (dec.). The compound further had a Ki in series [2] (Table B) of 0.1 to 100 nM. Also, the Ki in series [1] (setting [4]) is 101 to 500 nM.

As to `Cc1cc(OCCCN2CCCCC2)ccc1-c1ccc(=O)[nH]n1` [Example 137, 6-[2-Methyl-4-(3-piperidin-1-yl-propoxy)-phenyl]-2H-pyridazin-3-one], the melting point was 114 °C (dec.). Further, the Ki in series [2] (Table B) fell in the range of 0.1 to 100 nM. In series [1] (setting [4]), the Ki lay in the range of 0.1 to 100 nM.

As for `CC(C)N1CCC(COc2ccc(-c3ccc(=O)[nH]n3)cn2)CC1` [Example 140, 6-[6-(1-Isopropyl-piperidin-4-ylmethoxy)-pyridin-3-yl]-2H-pyridazin-3-one], the melting point lay in the range of 188 to 191 °C. The compound further had a Ki in series [2] (Table B) of 101 to 500 nM. Besides, the Ki in series [1] (setting [4]) lay in the range of 501 to 1000 nM.

As to `O=c1ccc(-c2ccc(OC3CCN(C4CCC4)CC3)nc2)n[nH]1` [Example 141, 6-[6-(1-Cyclobutyl-piperidin-4-yloxy)-pyridin-3-yl]-2H-pyridazin-3-one], the melting point is 217 to 219 °C. Also, the Ki in series [2] (Table B) fell in the range of 0.1 to 100 nM. In addition, the inhibitory constant (Ki) in series [1] (setting [4]) lay in the range of 0.1 to 100 nM.

In the case of `CC(C)N1CCC(Oc2ccc(-c3ccc(=O)[nH]n3)cn2)CC1` [Example 142, 6-[6-(1-Isopropyl-piperidin-4-yloxy)-pyridin-3-yl]-2H-pyridazin-3-one], the melting point was in the range of 195 to 197 °C. Besides, in series [2] (Table B), the Ki is 0.1 to 100 nM. In addition, the Ki in series [1] (setting [4]) lay within 101 to 500 nM.

As for `CC(C)n1nc(-c2ccc(OC3CCN(C4CCC4)CC3)nc2)ccc1=O` [Example 145, 6-[6-(1-Cyclobutyl-piperidin-4-yloxy)-pyridin-3-yl]-2-isopropyl-2H-pyridazin-3-one], the melting point lay in the range of 113 to 115 °C. Moreover, in series [2] (Table B), the inhibition constant Ki lay in the range of 0.1 to 100 nM. In series [1] (setting [4]), the Ki was in the range of 0.1 to 100 nM.

As for `C[C@H](COc1ccc(-c2cn[nH]c(=O)c2)cc1)CN1CCC[C@H]1C` [Example 225, 5-{4-[(S)-2-Methyl-3-((R)-2-methyl-pyrrolidin-1-yl)-propoxy]-phenyl}-2H-pyridazin-3-one], the melting point lay in the range of 154 to 156 °C. Also, the Ki in series [1] lay in the range of 0.1 to 100 nM.

Turning to `C[C@@H](COc1ccc(-c2cn[nH]c(=O)c2)cc1)CN1CCC[C@H]1C` [Example 226, 5-{4-[(R)-2-Methyl-3-((R)-2-methyl-pyrrolidin-1-yl)-propoxy]-phenyl}-2H-pyridazin-3-one], the melting point fell in the range of 130 to 133 °C. This compound came in with a Ki in series [1] of 0.1 to 100 nM.
